Some test systems named below: LOX IMVI melanoma; NCI-H226 lung; OVCAR-5 ovarian; HOP-92 NSCLC; KM12 colon; SF-539 CNS; SK-MEL-2 melanoma; UACC-62 melanoma; SNB-75 CNS; SW-620 colon.
Holding throughout (test): growth of human tumour cells (NCI), 48 h

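Results reflect a 48-hour exposure of cells in 96-well plates to compound at five concentrations. GI50: concentration for 50% inhibition of growth. At the TGI there is no net growth.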

Take `O=C(N/N=C/c1ccc(F)cc1)c1[nH]c2ccc(I)cc2c1-c1ccccc1`: the GI50 with LOX IMVI melanoma was 0.767 µM; in the assay on NCI-H226 lung it was 2.24 µM; in the assay on OVCAR-5 ovarian it was 3.49 µM; with HOP-92 NSCLC it was 12.5 µM; with KM12 colon, 0.385 µM; with SF-539 CNS, 0.338 µM. Moreover, the GI50 with SK-MEL-2 melanoma was 10.9 µM; in the assay on UACC-62 melanoma, 0.324 µM; in the assay on SNB-75 CNS, 0.327 µM; with SW-620 colon it was 0.4 µM. In addition, the TGI in the assay with LOX IMVI melanoma is more than 100 µM; in the assay on NCI-H226 lung, more than 66.8 µM; with OVCAR-5 ovarian it was more than 100 µM; in the assay with HOP-92 NSCLC, more than 92.3 µM; in the assay on KM12 colon, 2.11 µM; in the assay with SF-539 CNS it was 1.34 µM. The TGI is more than 100 µM in the assay on SK-MEL-2 melanoma, more than 100 µM with UACC-62 melanoma, 39.3 µM with SNB-75 CNS and more than 100 µM in the assay on SW-620 colon.

Turning to `c1ccc2c(NCCCCCCCCNc3c4ccccc4nc4ccccc34)c3ccccc3nc2c1`, the TGI in the assay with NCI-H226 lung was 2.59 µM; in the assay with OVCAR-5 ovarian, 2.2 µM; in the assay on HOP-92 NSCLC, 2.87 µM; with KM12 colon, 1.59 µM; in the assay with SF-539 CNS, 1.15 µM; in the assay with SK-MEL-2 melanoma it was 2.23 µM. Also, the values for the TGI in the assay with UACC-62 melanoma, in the assay with SNB-75 CNS and in the assay on SW-620 colon were 2.19 µM, 2.62 µM and 1.71 µM, respectively.

As to `Cc1c2ncccc2c(C)c2c1[nH]c1ccccc12`, the TGI came out at 20.8 µM in the assay with LOX IMVI melanoma; 35.9 µM with NCI-H226 lung; 27.1 µM in the assay on OVCAR-5 ovarian; 25.3 µM with HOP-92 NSCLC; 29 µM with KM12 colon; 26 µM in the assay with SF-539 CNS. In addition, the TGI with SK-MEL-2 melanoma came to 41.4 µM; with UACC-62 melanoma it was 29.2 µM; in the assay with SNB-75 CNS, 22.6 µM; with SW-620 colon, 28 µM.

Regarding `COc1cccc2c1C1=CC(=O)CCC1C(C)(C)O2` (stereo not given), the TGI in the assay on LOX IMVI melanoma, in the assay on NCI-H226 lung, with OVCAR-5 ovarian, with HOP-92 NSCLC, with KM12 colon and with SF-539 CNS was more than 100 µM throughout. In addition, the TGI in the assay on SK-MEL-2 melanoma was more than 100 µM; in the assay with UACC-62 melanoma, more than 100 µM; in the assay with SNB-75 CNS, more than 100 µM; in the assay with SW-620 colon it was 27.3 µM.

Regarding `CN(C)CCNC(=O)c1cc([N+](=O)[O-])cc2ccc(-c3ccccc3)nc12`, the TGI with LOX IMVI melanoma was 30.5 µM; in the assay with NCI-H226 lung it was 11.8 µM; with OVCAR-5 ovarian, 27.6 µM; in the assay on HOP-92 NSCLC it was 27.4 µM; in the assay on KM12 colon, 49.6 µM; in the assay with SF-539 CNS, 27.2 µM. Also, the TGI in the assay with SK-MEL-2 melanoma was 28.7 µM; in the assay with UACC-62 melanoma, 15.7 µM; in the assay on SNB-75 CNS, 23.8 µM; in the assay on SW-620 colon, more than 38.7 µM.

In the case of `c1cc2c(cnc3cscc32)s1`, the TGI in the assay with LOX IMVI melanoma, with NCI-H226 lung, with OVCAR-5 ovarian, in the assay on HOP-92 NSCLC, with KM12 colon and in the assay with SF-539 CNS was more than 100 µM throughout. Besides, the TGI in the assay on SK-MEL-2 melanoma, in the assay with SNB-75 CNS and in the assay on SW-620 colon was more than 100 µM throughout.

For the molecule `Cc1ccc(C)c(NC(=O)/C(=N\NC(N)=S)C(C#N)c2ccccc2)c1` (stereo not given), the TGI in the assay on NCI-H226 lung, with OVCAR-5 ovarian, in the assay on HOP-92 NSCLC, in the assay with KM12 colon, with SF-539 CNS and in the assay with SK-MEL-2 melanoma was more than 100 µM each time. Besides, the TGI in the assay on UACC-62 melanoma, in the assay on SNB-75 CNS and in the assay on SW-620 colon was more than 100 µM each time.

As for `O=C1/C(=C\c2cccs2)Oc2ccccc21`, the TGI in the assay with LOX IMVI melanoma was more than 100 µM; with NCI-H226 lung, more than 100 µM; in the assay with OVCAR-5 ovarian it was more than 100 µM; in the assay with HOP-92 NSCLC it was 89 µM; in the assay on KM12 colon it was more than 100 µM; in the assay on SK-MEL-2 melanoma, more than 100 µM. For the same molecule, the TGI in the assay on UACC-62 melanoma, in the assay with SNB-75 CNS and in the assay with SW-620 colon was more than 100 µM throughout.

For `CCOC(=O)/C(C1=CC(=O)C(=O)c2ccccc21)=C(/C)NCc1ccccc1`, the GI50 with LOX IMVI melanoma was 1.15 µM; with NCI-H226 lung it was 2.62 µM; with OVCAR-5 ovarian, 2.43 µM; in the assay on HOP-92 NSCLC, 1.4 µM; in the assay on SF-539 CNS it was 1.06 µM; with SK-MEL-2 melanoma, 5.87 µM. Moreover, the GI50 in the assay on UACC-62 melanoma was 2.02 µM; in the assay on SNB-75 CNS it was 3.11 µM; in the assay with SW-620 colon, 1.64 µM. The TGI was 2.36 µM in the assay on LOX IMVI melanoma; 6.38 µM in the assay with NCI-H226 lung; 6.69 µM in the assay with OVCAR-5 ovarian; 3.52 µM with HOP-92 NSCLC; 2.65 µM in the assay with SF-539 CNS; more than 100 µM with SK-MEL-2 melanoma. Also, the figures for the TGI in the assay with UACC-62 melanoma, in the assay with SNB-75 CNS and in the assay on SW-620 colon were 3.91 µM, 55.5 µM and 3.3 µM, respectively.

For `Cc1ccc(-n2c(C)nc3c2C(=O)c2ccccc2C3=O)cc1`, the TGI in the assay with LOX IMVI melanoma is 97.2 µM; in the assay on NCI-H226 lung, more than 100 µM; in the assay with HOP-92 NSCLC, more than 100 µM; with KM12 colon it was more than 100 µM; in the assay with SF-539 CNS, 86.1 µM; in the assay on SK-MEL-2 melanoma, more than 100 µM. Besides, the TGI is 56.6 µM in the assay on UACC-62 melanoma, more than 100 µM in the assay on SNB-75 CNS and more than 100 µM in the assay on SW-620 colon.

Take `OC1CCC(C2C3CCCCC3C3CCCCC3C2C2CCC(O)CC2)CC1` (stereo not given): the TGI was more than 100 µM in the assay on NCI-H226 lung; more than 100 µM with OVCAR-5 ovarian; 98.9 µM with HOP-92 NSCLC; 15.5 µM in the assay with KM12 colon; 75.5 µM with SF-539 CNS; 25.3 µM with SK-MEL-2 melanoma. Also, the values for the TGI in the assay with UACC-62 melanoma, with SNB-75 CNS and in the assay on SW-620 colon were 31.2 µM, 21.6 µM and 19.6 µM, respectively.

As for `N#CC1C(N)=NNC1c1ccc(-c2ccc(-c3nc4ccccc4o3)cc2)o1` (stereo not given), the GI50 is 23.3 µM in the assay with LOX IMVI melanoma; 15.1 µM in the assay on NCI-H226 lung; 38.1 µM in the assay on OVCAR-5 ovarian; 18.2 µM with HOP-92 NSCLC; 24 µM in the assay on KM12 colon; 37.5 µM in the assay with SK-MEL-2 melanoma. Moreover, the GI50 in the assay with UACC-62 melanoma was 23.9 µM; in the assay on SNB-75 CNS, more than 100 µM; in the assay on SW-620 colon, 74.9 µM. The TGI is 64.7 µM in the assay on LOX IMVI melanoma; 74.5 µM in the assay with NCI-H226 lung; more than 100 µM with OVCAR-5 ovarian; more than 100 µM in the assay with HOP-92 NSCLC; 93.8 µM in the assay with KM12 colon; more than 100 µM with SK-MEL-2 melanoma. The TGI in the assay on UACC-62 melanoma is 91.1 µM; in the assay on SNB-75 CNS, more than 100 µM; in the assay with SW-620 colon, more than 100 µM.

(Values after PubChem BioAssay (NCI).)
